Laboratory results: PubChem BioAssay (NCI)
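The compound was tested at five concentrations on cells cultured in 96-well plates, with a 48-hour exposure period. The concentration for 50% growth inhibition is given as GI50. At the TGI there is no net growth.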

Columns and labels:
Experiment in all cases: inhibition of tumour cell growth, NCI panel, 48 h
A498 renal = tested on: A498 renal
A549 NSCLC = tested on: A549 NSCLC
BT-549 breast = tested on: BT-549 breast
CAKI-1 renal = tested on: CAKI-1 renal
CCRF-CEM leukemia = tested on: CCRF-CEM leukemia
COLO 205 colon = tested on: COLO 205 colon
DU-145 prostate = tested on: DU-145 prostate
EKVX NSCLC = tested on: EKVX NSCLC
HCC-2998 colon = tested on: HCC-2998 colon
HCT-116 colon = tested on: HCT-116 colon
HCT-15 colon = tested on: HCT-15 colon
HL-60(TB) leukemia = tested on: HL-60(TB) leukemia
HOP-62 NSCLC = tested on: HOP-62 NSCLC
HOP-92 NSCLC = tested on: HOP-92 NSCLC
HS 578T breast = tested on: HS 578T breast
HT29 colon = tested on: HT29 colon
IGROV1 ovarian = tested on: IGROV1 ovarian
K-562 leukemia = tested on: K-562 leukemia
KM12 colon = tested on: KM12 colon
M14 melanoma = tested on: M14 melanoma
MALME-3M melanoma = tested on: MALME-3M melanoma
MCF7 breast = tested on: MCF7 breast
MDA-MB-231 breast = tested on: MDA-MB-231 breast
MDA-MB-435 = tested on: MDA-MB-435
MOLT-4 leukemia = tested on: MOLT-4 leukemia
NCI-H226 lung = tested on: NCI-H226 lung
NCI-H23 lung = tested on: NCI-H23 lung
NCI-H460 lung = tested on: NCI-H460 lung
NCI/ADR-RES ovarian = tested on: NCI/ADR-RES ovarian
OVCAR-3 ovarian = tested on: OVCAR-3 ovarian
OVCAR-4 ovarian = tested on: OVCAR-4 ovarian
OVCAR-5 ovarian = tested on: OVCAR-5 ovarian
OVCAR-8 ovarian = tested on: OVCAR-8 ovarian
PC-3 prostate = tested on: PC-3 prostate
RXF 393 renal = tested on: RXF 393 renal
SF-268 CNS = tested on: SF-268 CNS
SF-295 CNS = tested on: SF-295 CNS
SF-539 CNS = tested on: SF-539 CNS
SK-MEL-2 melanoma = tested on: SK-MEL-2 melanoma
SK-MEL-28 melanoma = tested on: SK-MEL-28 melanoma
SK-MEL-5 melanoma = tested on: SK-MEL-5 melanoma
SK-OV-3 ovarian = tested on: SK-OV-3 ovarian
SN12C renal = tested on: SN12C renal
SNB-19 CNS = tested on: SNB-19 CNS
SNB-75 CNS = tested on: SNB-75 CNS
SR leukemia = tested on: SR leukemia
SW-620 colon = tested on: SW-620 colon
T-47D breast = tested on: T-47D breast
TK-10 renal = tested on: TK-10 renal
U251 CNS = tested on: U251 CNS
UACC-257 melanoma = tested on: UACC-257 melanoma
UACC-62 melanoma = tested on: UACC-62 melanoma

O=C(CSc1nnc(-c2ccc(Cl)cc2)n1-c1ccccc1)Nc1cccc(F)c1
GI50 (A498 renal): 4.5 µM | TGI (A498 renal): 73.9 µM | GI50 (A549 NSCLC): 2.77 µM | TGI (A549 NSCLC): > 100 µM | GI50 (BT-549 breast): > 100 µM | TGI (BT-549 breast): > 100 µM | GI50 (CAKI-1 renal): 2.89 µM | TGI (CAKI-1 renal): > 100 µM | GI50 (CCRF-CEM leukemia): > 100 µM | TGI (CCRF-CEM leukemia): > 100 µM | GI50 (COLO 205 colon): > 100 µM | TGI (COLO 205 colon): > 100 µM | GI50 (DU-145 prostate): > 30.3 µM | TGI (DU-145 prostate): > 100 µM | GI50 (EKVX NSCLC): > 23 µM | TGI (EKVX NSCLC): > 100 µM | GI50 (HCC-2998 colon): > 30.3 µM | TGI (HCC-2998 colon): > 100 µM | GI50 (HCT-116 colon): 2.38 µM | TGI (HCT-116 colon): > 100 µM | GI50 (HCT-15 colon): > 100 µM | TGI (HCT-15 colon): > 100 µM | GI50 (HL-60(TB) leukemia): > 100 µM | TGI (HL-60(TB) leukemia): > 100 µM | GI50 (HOP-62 NSCLC): 3.18 µM | TGI (HOP-62 NSCLC): > 26.4 µM | GI50 (HOP-92 NSCLC): 4 µM | TGI (HOP-92 NSCLC): > 100 µM | GI50 (HS 578T breast): 3.3 µM | TGI (HS 578T breast): > 100 µM | GI50 (HT29 colon): > 27 µM | TGI (HT29 colon): > 100 µM | GI50 (IGROV1 ovarian): 3.2 µM | TGI (IGROV1 ovarian): > 100 µM | GI50 (K-562 leukemia): > 100 µM | TGI (K-562 leukemia): > 100 µM | GI50 (KM12 colon): > 21 µM | TGI (KM12 colon): > 100 µM | GI50 (M14 melanoma): > 100 µM | TGI (M14 melanoma): > 100 µM | GI50 (MALME-3M melanoma): 3.9 µM | TGI (MALME-3M melanoma): > 100 µM | GI50 (MCF7 breast): 3.47 µM | TGI (MCF7 breast): > 100 µM | GI50 (MDA-MB-231 breast): 2.36 µM | TGI (MDA-MB-231 breast): > 24.2 µM | GI50 (MDA-MB-435): > 100 µM | TGI (MDA-MB-435): > 100 µM | GI50 (MOLT-4 leukemia): > 100 µM | TGI (MOLT-4 leukemia): > 100 µM | GI50 (NCI-H226 lung): 4.11 µM | TGI (NCI-H226 lung): > 100 µM | GI50 (NCI-H23 lung): 5.14 µM | TGI (NCI-H23 lung): > 100 µM | GI50 (NCI-H460 lung): 1.49 µM | GI50 (NCI/ADR-RES ovarian): 2.26 µM | TGI (NCI/ADR-RES ovarian): 8.77 µM | GI50 (OVCAR-3 ovarian): 4.11 µM | TGI (OVCAR-3 ovarian): 73.9 µM | GI50 (OVCAR-4 ovarian): > 100 µM | TGI (OVCAR-4 ovarian): > 100 µM | TGI (OVCAR-5 ovarian): > 100 µM | GI50 (OVCAR-8 ovarian): 3.03 µM | TGI (OVCAR-8 ovarian): > 100 µM | GI50 (PC-3 prostate): > 100 µM | TGI (PC-3 prostate): > 100 µM | GI50 (RXF 393 renal): 2.86 µM | TGI (RXF 393 renal): > 36 µM | GI50 (SF-268 CNS): > 21.4 µM | TGI (SF-268 CNS): > 100 µM | GI50 (SF-295 CNS): 3.98 µM | TGI (SF-295 CNS): > 70.6 µM | GI50 (SF-539 CNS): 2.33 µM | TGI (SF-539 CNS): > 22.4 µM | GI50 (SK-MEL-2 melanoma): > 100 µM | TGI (SK-MEL-2 melanoma): > 100 µM | GI50 (SK-MEL-28 melanoma): > 100 µM | TGI (SK-MEL-28 melanoma): > 100 µM | GI50 (SK-MEL-5 melanoma): > 55.4 µM | TGI (SK-MEL-5 melanoma): > 100 µM | GI50 (SK-OV-3 ovarian): 10.2 µM | TGI (SK-OV-3 ovarian): > 100 µM | GI50 (SN12C renal): 1.91 µM | TGI (SN12C renal): 6.26 µM | GI50 (SNB-19 CNS): 6.27 µM | TGI (SNB-19 CNS): > 100 µM | GI50 (SNB-75 CNS): 2.09 µM | TGI (SNB-75 CNS): > 30.5 µM | GI50 (SR leukemia): > 35.3 µM | TGI (SR leukemia): > 100 µM | GI50 (SW-620 colon): 5 µM | TGI (SW-620 colon): > 100 µM | GI50 (T-47D breast): 1.58 µM | TGI (T-47D breast): > 100 µM | GI50 (TK-10 renal): 4.65 µM | TGI (TK-10 renal): > 100 µM | GI50 (U251 CNS): 1.62 µM | TGI (U251 CNS): 4.46 µM | GI50 (UACC-257 melanoma): > 100 µM | TGI (UACC-257 melanoma): > 100 µM | GI50 (UACC-62 melanoma): > 100 µM | TGI (UACC-62 melanoma): > 100 µM
